Experimental data as given in patent US20250361485A1, “MODIFIED CD4+ T CELLS EXPRESSING IL-37 AND METHODS OF USE THEREOF” (The Regents of the University of Colorado, A Body Corporate, priority 2022, published 2025).

Assays:
Format in all cases: cell-based
[1] = tested on: FOXP3; test: FOXP3 expression in human Treg / CD4+ T cells treated with SMAD3 inhibitors; details: for FOXP3 mRNA expression: purified human Treg cells
From the text: p-SMAD3 […]/425 is recognized for its involvement in TGFβ signaling. […] Given the essential role of SMAD3 phosphorylation in nuclear localization and transcriptional activity controlling other genes, the phosphorylation status and its association with IL-37 in human Treg cells was examined (FIG. 24A). Inhibitors of […]/425 sites (SIS3) and […]/[…] sites (flavopiridol) were utilized to determine if they could decrease FOXP3 mRNA expression and disrupt the SMAD3/IL-37 interaction. […] These findings also point to a crucial interplay between p-SMAD3 […] and IL-37 in orchestrating the transcriptional regulation of FOXP3 in human Treg cells.

[2] = tested on: FOXP3; test: siRNA knockdown in primary human T cells, FOXP3 and marker expression; details: siRNA 48 h prior
Method: Purified primary human CD4+ T cells were used for siRNA knockdown of RUNX1, RPTOR, IL37, CREB1, CHK1, NLRP2, NLRP3, NLRP4, ASC, and NLRC4, and CD4+CD25+CD127^dim T cells for siRNA knockdown of FOXP3 and IL37. Cells were purified from healthy donor PBMCs as described above and then placed in culture in complete RPMI 1640 for at least 2 h prior to siRNA transfection via nucleofection using the Amaxa P3 Primary Cell 4D-Nucleofector X Kit L (Lonza) following the manufacturer's instructions. For the knockdown of RPTOR and IL-37, three different siRNAs (30 nM) against RPTOR and IL-37: A, B, and C (OriGene, Rockville, MD) were used separately or pooled, whereas for FOXP3 knockdown, only the pool of three different siRNAs (30 nM) against FOXP3: A, B, and C (OriGene) was used due to a limited number CD4+CD25+CD127^dim T cells. For the knockdown of NLRP3A, three to four siRNAs were pooled together, and for NLRC4 and NLRP4, Dharmacon SMARTpool was used. Single-sense and anti-sense siRNAs were used for NLRP2 and ASC (Ambion). Scrambled siRNA (OriGene, Ambion, and Dharmacon) was used as a control. Knockdowns were confirmed 24 hours after nucleofection by qRT-PCR or 48 hours later by western blot, and the relative density of the protein bands was determined using FIJI. […]

[3] = tested on: human Treg cells; test: CD25+FOXP3+ frequency in human Treg cells cultured with IL-6; details: anti-TCR/CD28, IL-6 20 ng/ml
Method: Purified lymphocytes from either humans or mice were washed with FACS buffer (5% BSA (Sigma-Aldrich) and 1×PBS), and then prepared for surface or intracellular staining, as described (Osborne and Wetzel, 2012). For surface staining, 1 μg or the manufacturer-recommended amounts of fluorescently conjugated antibody specific to the surface marker to be visualized was added to 1×10^6 cells resuspended in 100 μl of FACS buffer for 30 min at 4° C., then washed 2× with FACS buffer prior to being either analyzed or further processed. For intracellular cytokine staining (ICS), the FOXP3 Cytoperm/Cytofix staining kit (BD Pharmingen, San Diego, CA) was used after cells were stimulated for 24 h on 1 μg/ml anti-CD3-coated plates with soluble 1 μg/ml anti-CD28 antibody or anti-CD3/CD28 conjugated Dynabeads™ (Gibco, Thermo Fisher). For measuring proliferation, cells were stained with 5-μM CFSE (Molecular Probes, Eugene, OR) prior to cell culture and analyzed using flow cytometry. Flow-based measurement of caspase-1 activation was done using the FAM-FLICA® Caspase-1 Assay kit #98 following the manufacturer's instructions (ImmunoChemistry Tech, Bloomington, MN). […] All acquisitions were performed on a Galios® or Galios® 561 cytometer equipped with Kaluza software (Beckman-Coulter, Indianapolis, IN), and all data were analyzed with FlowJo_V10 software (Tree Star, Ashland, OR).

[4] = tested on: p-SMAD3 S208; test: Immunoblotting of cytoplasmic and nuclear proteins of human Treg cells after flavopiridol; details: immunoblot
Method: For immunoblot analysis, cells were lysed in RIPA buffer (50 mM Tris-HCL pH 7.4, 150 mM NaCl, 1 mM PMSF, 1 mM EDTA, 5 μg/ml Aprotinin, […] Leupeptin, 1% Triton x-100, 1% Sodium deoxycholate, 0.1% SDS) (Sigma-Aldrich). For IP of Smad3, cells were lysed in Pierce® IP Lysis Buffer (Thermo) and prepared using the Thermo Immunoprecipitation containing Dynabeads™ Protein G kit according to the manufacturer's instructions. The Smad3 IP was performed using the rabbit monoclonal antibody against Smad3 (C67H9) (Thermo). Hsp90 IP using mouse monoclonal antibody against Hsp90 (610418) (BD Biosciences). 20 μg of sample was run on a 4-15% Mini-Protean TGX precast gel (Bio-Rad) and then transferred overnight at 4° C. and 30 V to a PVDF membrane using a Bio-Rad Trans-Blot® transfer cell. Following 1 h of blocking with blocking buffer (5% milk/Tween 20 in TBS), membranes were incubated with primary antibody overnight at 4° C. For siRNA knockdown blots, mouse β-actin monoclonal antibody (Sigma-Aldrich) at a dilution of 1:10,000 was used for the loading control. For Smad3 IP, rabbit anti-human IL-37 (IL-1F7) polyclonal antibody (Invitrogen, Thermo) at a dilution of 1:1000 was used to detect IL37. HRP-conjugated anti-rabbit (1:5000) and anti-mouse IgG (1:5000) were purchased from Sigma-Aldrich. The SuperSignal West Pico Kit (Thermo Fisher) was used according to the manufacturer's instructions for the chemiluminescent detection of the proteins. Protein expression was further analyzed by measuring the relative densities using FIJI (National Institutes of Health: http://rsb.info.nih.gov/ij/) or LI-COR Image Studio™ Software.
Therefore, cytoplasmic and nuclear proteins of primary human Treg cells was scrutinized following flavopiridol treatment to ascertain if p-SMAD3 S208 is essential for the nuclear localization of SMAD3 and IL-37.

[5] = tested on: caspase-1; test: Caspase-1 inhibition in human Treg / CD4+ T cells; details: 50 μM
Method: For proximity ligation assay (PLA) experiments, after primary antibodies were washed out, cells were incubated for 1 h at 37° C. with an anti-rabbit PLUS probe (1:5 dilution; Duo92002; Sigma-Aldrich) anti-mouse MINUS probe (1:5 dilution; Duo92004; Sigma-Aldrich) and were washed two times with wash buffer A. Probes were then ligated for 30 min at 37° C. and washed two times in Buffer A and were amplified for 100 min at 37° C. in the dark with polymerase (Sigma-Aldrich). For flow-based PLA (Sigma-Aldrich), after amplification, cells were treated with 1× green detection buffer for 30 min at 37° C., then washed 2× with PLA wash buffer and prepared for flow analysis. After 2 washes with 1× Buffer B (Thermo Fisher), each well was added with ProLong™ Gold antifade reagent (Thermo Fisher) containing DAPI nuclear stain. Images were obtained with an Olympus FV1000 FCS/RICS system (Olympus, Tokyo, Japan). For analysis, 7 different 100×/1.4 Oil Plan-Apochromatic objective fields of view were imaged per well per experiment. Each field was measured for IL-37 fluorescence intensity using the FIJI measurement application. To analyze the cytoplasmic vs. nuclear localization of IL-37 within the T cells, DAPI and IL-37 overlapped images was used. Along with single-slice full field images, […] slice z-stack images were taken to confirm cytoplasmic vs. nuclear localization of IL-37. Colocalization of IL-37 and DAPI was assessed by Pearson's correlation coefficient using FIJI. Line intensity profiles were created using a Plot profile in FIJI to measure differences in fluorescence across a cell by drawing a line spanning the diameter of the cell, and then the staining intensity measurements across the line were then entered into Prism 8 (GraphPad, Lo Jolla, CA). 3D fluorescent maps were created using a Surface plot in FIJI.
Purified lymphocytes from either humans or mice were washed with FACS buffer (5% BSA (Sigma-Aldrich) and 1×PBS), and then prepared for surface or intracellular staining, as described (Osborne and Wetzel, 2012). For surface staining, 1 μg or the manufacturer-recommended amounts of fluorescently conjugated antibody specific to the surface marker to be visualized was added to 1×10^6 cells resuspended in 100 μl of FACS buffer for 30 min at 4° C., then washed 2× with FACS buffer prior to being either analyzed or further processed. […] For measuring proliferation, cells were stained with 5-μM CFSE (Molecular Probes, Eugene, OR) prior to cell culture and analyzed using flow cytometry. […]

`COc1cc2c(cc1OC)CN(C(=O)/C=C/c1c(-c3ccccc3)n(C)c3ncccc13)CC2` [SIS3] was tested, and the FOXP3 protein expression ([1]; primary human CD4+ T cells) was “did not significantly decrease” and the “FOXP3 mRNA expression” value [1] was “did not significantly alter”.

With “CREB1: siRNA against CREB1 (Ambion), SEQ ID NO: 8-9 (chain 1 CCGUAACUCUAGUACAGCU; chain 2 AGCUGUACUAGAGUUACGG; listed as RNA, chemistry not given here)” the “frequency of FOXP3+ T cells in CD4+ T cells after knockdown” value [2] was “significant decline”.

For “RUNX1: siRNA against RUNX1 (Ambion), SEQ ID NO: 34-35 (chain 1 AGAACCAGGUUGCAAGAUU; chain 2 AAUCUUGCAACCUGGUUCU; listed as RNA, chemistry not given here)”, the “frequency of FOXP3+ T cells in CD4+ T cells after knockdown” value [2] was “significant decline”.

For “IL-6: IL-6 (Peprotech), 20 ng/ml, added as inflammatory stimulus to Treg cultures”, the “decrease in frequency of CD25+FOXP3+ cells” value ([3]; gated IL37hi human Treg cells) was “no such reduction” and the “decrease in frequency of CD25+FOXP3+ cells” value ([3]; gated IL-37lo human Treg cells) was 34%.

For `CN1CC[C@H](c2c(O)cc(O)c3c(=O)cc(-c4ccccc4Cl)oc23)[C@H](O)C1` [flavopiridol], the “FOXP3 protein expression, fold decrease compared to control cells” value ([1]; primary human CD4+ T cells, not rescued by TGF-β) was about 2 fold, the “FOXP3 mRNA expression” value [1] was “almost completely obliterated” and the “expression of IL-37 in the nucleus” value [4] was “abolished”. For the same compound, the “nuclear SMAD3 levels” value [4] was “lowered”, the “nuclear levels of FOXP3” value [4] was “reduced” and the “p-SMAD3 S208” value [4] was “diminished”.

For Ac-YVAD-CMK, the “FOXP3 mRNA and protein expression” value ([5]; human CD4+ T cells) was “reduction”, the “decrease of interaction between IL-37 and p-SMAD3 S208” value ([5]; human Treg cells) was 36.5% and the IL-37 subcellular localization ([5]; human Treg cells, 24 h) was “shift of IL-37 localization from the nucleus to the perinuclear region of the cytoplasm”. The IL-37 expression ([5]; human Treg cells, 48 h) was “without alteration”.
